This passage reports IC50 results from patent US10633375B2, “Oxopicolinamide derivative, preparation method therefor and pharmaceutical use thereof” (Jiangsu Hengrui Medicine Co., Ltd., priority 2016, dated 2020).

Broadly, the IC50 is the concentration needed to halve the response being measured.

This assay deals with Coagulation Factor XIa protease (Homo sapiens (Human), UniProt P03951). The assay can be described thus: Inhibition of Factor XIa detected by absorption photometry. Type of assay: biochemical. Particulars: absorbance at 405 nm, 10 minutes at 37° C. How it is done: Test Example 1: Biological Activity of the Compounds of the Present Invention on
Chain of Coagulation Factor XIa protease (P03951 388-625): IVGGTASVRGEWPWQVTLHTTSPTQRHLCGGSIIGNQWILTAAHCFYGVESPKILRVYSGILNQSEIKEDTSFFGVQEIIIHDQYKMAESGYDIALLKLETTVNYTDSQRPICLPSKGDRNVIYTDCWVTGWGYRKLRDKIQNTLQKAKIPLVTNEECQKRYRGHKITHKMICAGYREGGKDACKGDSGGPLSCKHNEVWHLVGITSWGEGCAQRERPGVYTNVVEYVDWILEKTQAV
Chain of Coagulation Factor XIa protease (P03951 19-387 partner): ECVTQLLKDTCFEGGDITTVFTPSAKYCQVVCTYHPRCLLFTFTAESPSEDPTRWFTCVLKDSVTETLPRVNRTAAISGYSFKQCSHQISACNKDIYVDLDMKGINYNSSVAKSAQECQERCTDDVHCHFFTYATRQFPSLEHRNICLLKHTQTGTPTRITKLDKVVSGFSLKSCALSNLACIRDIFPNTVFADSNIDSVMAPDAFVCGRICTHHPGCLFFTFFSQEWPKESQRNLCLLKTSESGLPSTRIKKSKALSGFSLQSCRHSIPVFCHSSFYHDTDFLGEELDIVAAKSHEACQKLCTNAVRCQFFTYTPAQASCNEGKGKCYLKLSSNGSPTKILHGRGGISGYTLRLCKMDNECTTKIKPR
The Inhibition of Factor XIa Detected by Absorption Photometry
1. Experimental Materials
Enzyme: Coagulation Factor XIa protease (Abcam, Art. No ab62411)
Substrate: Coagulation Factor XIa specific substrate (HYPHEN1310 med, Art. No. Biophen cs-21(66))
2. Experimental Procedure
20 mM of test compound dissolved in 100% DMSO was diluted to 200, 20, 2, 0.2, 0.02, 0.002 μM with 100% DMSO; 1 μl of the compound was added to each well in a 384-well plate, blank and control wells were replaced with DMSO. The plate was centrifuged to remove the compound to the bottom. 10 μl (2.5 μg/ml) of FXIa enzyme solution was added to each well, and 10 μl of buffer was added to the blank well. The plate was centrifuged to remove the enzyme solution to the bottom.
Finally, 10 μl of 2 mM substrate were added to each well, and the plate was centrifuged to remove the substrate solution to the bottom.
The plate was incubated for 10 minutes at 37° C.; and then the absorbance was measured at 405 nm.
For the molecule `COc1cn(C(Cc2ccccc2)C(=O)Nc2ccc(C(=O)O)cc2)c(=O)cc1-c1cc(Cl)ccc1C(=O)C1CC1` (centres unmarked) [Example 41, 4-(2-(4-(5-chloro-2-(cyclopropanecarbonyl)phenyl)-5-methoxy-2-oxopyridin-1(2H)-yl)-3-phenylpropanamido)benzoic acid], the IC50 came out at 39 nM.

In the case of `COc1cn(C(Cc2ccccc2C#N)C(=O)Nc2ccc(C(=O)O)cc2)c(=O)cc1-c1cc(Cl)ccc1C(C)=O` (centres unmarked) [Example 87, 4-(2-(4-(2-acetyl-5-chlorophenyl)-5-methoxy-2-oxopyridin-1(2H)-yl)-3-(2-cyanophenyl)propanamido)benzoic acid], inhibition was half-maximal at 73 nM (IC50). The same measure for `COCCC(C(=O)Nc1ccc(C(=O)O)cc1)n1cc(OC)c(-c2c(C(C)=O)ccc(Cl)c2F)cc1=O` (centres unmarked) [Example 146, 4-(2-(4-(6-acetyl-3-chloro-2-fluorophenyl)-5-methoxy-2-oxopyridin-1(21)-yl)-4-methoxvbutanamido)benzoic acid]: 37 nM; for `COc1cn([C@@H](CC2CC2)C(=O)Nc2ccc(C(=O)O)cc2)c(=O)cc1-c1cc(Cl)ccc1C(C)=O` [Example 168, (S)-4-(2-(4-(2-acetyl-5-chlorophenyl)-5-methoxy-2-oxopyridin-1(2H)-yl)-3-cyclopropylpropanamido)benzoic acid]: 43 nM; for `COc1cn(C(CC2CCCCO2)C(=O)Nc2ccc(C(=O)O)cc2)c(=O)cc1-c1cc(Cl)ccc1C(C)=O` (centres unmarked) [Example 176]: 71 nM. In turn, `CCC(=O)c1ccc(Cl)cc1-c1cc(=O)n([C@@H](Cc2ccccc2)C(=O)Nc2ccc(C(N)=O)cc2)cc1OC` [Example 26, (S)-4-(2-(4-(5-chloro-2-propionylphenyl)-5-methoxy-2-oxopyridin-1(2H)-yl)-3-phenylpropanamido)benzamide] had an IC50 of 21 nM. This IC50 is about 3.4-fold lower than that of the molecule before.

As for `COc1cn(C(Cc2ccsc2)C(=O)Nc2ccc(C(=O)O)cc2)c(=O)cc1-c1cc(Cl)ccc1C(C)=O` (centres unmarked) [Example 7, 4-(2-(4-(2-acetyl-5-chlorophenyl)-5-methoxy-2-oxopyridin-1 (2H)-yl)-3-(thiophen-3-yl)propanamido)benzoic acid], the IC50 came to 34 nM.

`COc1cn(C(CCOC(C)(C)C)C(=O)Nc2ccc(C(=O)O)cc2)c(=O)cc1-c1c(C(C)=O)ccc(Cl)c1F` (centres unmarked) [Example 120, 44-(2-(4-(6-acetyl-3-chloro-2-fluorophenyl)-5-methoxy-2-oxopyridin-1(2H)-yl)-4-(tert-butoxy)butanamido)benzoic acid] showed an IC50 of 49 nM. The IC50 values of the last two molecules are within 1.5-fold of each other. The same measure for `COc1cn(C(Cc2ccc(F)cc2)C(=O)Nc2ccc(C(=O)O)cc2)c(=O)cc1-c1cc(Cl)ccc1C(C)=O` (centres unmarked) [Example 63, 4-(2-(4-(2-acetyl-5-chlorophenyl)-5-methoxy-2-oxopyridin-1(2H)-yl)-3-(4-fluorophenyl)propanamido)benzoic acid]: 55 nM.

Regarding `COc1cn(C(CCOC2CCC2)C(=O)Nc2ccc(C(=O)O)cc2)c(=O)cc1-c1cc(Cl)ccc1C(C)=O` (centres unmarked) [Example 162, 4-(2-(4-(2-acetyl-5-chlorophenyl)-5-methoxy-2-oxopyridin-1(2H)-yl)-4-cyclobutoxybutanamido)benzoic acid], the IC50 worked out at 35 nM. The same measure for `COc1cn(C(Cc2ccccc2)C(=O)Nc2ccc3cn[nH]c3c2)c(=O)cc1-c1cc(Cl)ccc1C(C)=O` (centres unmarked) [Example 42, 2-(4-(2-acetyl-5-chlorophenyl)-5-methoxy-2-oxopyridin-1 (2H)-yl)-N-(1H-indazol-6-yl)-3-phenylpropanamide]: 40 nM. `COc1cn(C(Cc2ccccc2Cl)C(=O)Nc2ccc(C(=O)O)cc2)c(=O)cc1-c1cc(Cl)ccc1C(C)=O` (centres unmarked) [Example 70, 4-(2-(4-(2-acetyl-5-chlorophenyl)-5-methoxy-2-oxopyridin-1 (2H)-yl)-3-(2-chlorophenyl)propanamido)benzoic acid] yielded a concentration for half-maximal inhibition (IC50) of 54 nM. Consider `COc1cn(C(CC2CC2)C(=O)Nc2ccc(C(=O)O)cc2)c(=O)cc1-c1cc(Cl)ccc1C(C)=O` (centres unmarked) [Example 167, 4-(2-(4-(2-acetyl-5-chlorophenyl)-5-methoxy-2-oxopyridin-1(2H)-yl)-3-cyclopropylpropanamido)benzoic acid], for which the IC50 is 92 nM. The result for `COc1cn(C(Cc2ccccc2)C(=O)Nc2ccc3[nH]cnc3c2)c(=O)cc1-c1cc(Cl)ccc1C(C)=O` (centres unmarked) [Example 47, 2-(4-(2-acetyl-5-chlorophenyl)-5-methoxy-2-oxopyridin-1 (2H)-yl)-N-(1H-benzo[d]imidazol-5-yl)-3-phenylpropanamide] reads 82 nM; that for `COc1cn(C(Cc2ccc(Cl)cc2)C(=O)Nc2ccc(C(=O)O)cc2)c(=O)cc1-c1cc(Cl)ccc1C(C)=O` (centres unmarked) [Example 69, 4-(2-(4-(2-acetyl-5-chlorophenyl)-5-methoxy-2-oxopyridin-1 (2H)-yl)-3-(4-chlorophenyl)propanamido)benzoic acid], 49 nM; that for `COc1cn([C@H](Cc2ccccc2)C(=O)Nc2ccc3nn(C)cc3c2)c(=O)cc1-c1cc(Cl)ccc1C(C)=O` [Example 19, (R)-2-(4-(2-acetyl-5-chlorophenyl)-5-methoxy-2-oxopyridin-1(2H)-yl)-N-(2-methyl-2H-indazol-5-yl)-3-phenylpropanamide], 5690 nM. The molecule `CCC(=O)c1ccc(Cl)cc1-c1cc(=O)n(C(CCOC(C)(C)C)C(=O)Nc2ccc3nccnc3c2)cc1OC` (centres unmarked) [Example 113, 4-(tert-butoxy)-2-(4-(5-chloro-2-propionylphenyl)-5-methoxy-2-oxopyridin-(2H)-yl)-N-(quinoxalin-6-yl)butanamide] showed an IC50 of 33 nM. Consider `COc1cn(C(Cc2ccc(F)cc2F)C(=O)Nc2ccc(C(=O)O)cc2)c(=O)cc1-c1cc(Cl)ccc1C(C)=O` (centres unmarked) [Example 65, 4-(2-(4-(2-acetyl-5-chlorophenyl)-5-methoxy-2-oxopyridin-1(2H)-yl)-3-(2,4-difluorophenyl)propanamido)benzoic acid], for which the 50% inhibitory concentration (IC50) amounted to 43 nM. As for `COc1cn([C@H](Cc2ccn(C)n2)C(=O)Nc2ccc(C(=O)O)cc2)c(=O)cc1-c1cc(Cl)ccc1C(C)=O` [Example 102, (R)-4-(2-(4-(2-acetyl-5-chlorophenyl)-5-methoxy-2-oxopyridin-1(2H)-yl)-3-(1-methyl-1H-pyrazol-3-yl)propanamido)benzoic acid], half-maximal inhibition (IC50) was put at 8210 nM. The same measure for `CCCCC(C(=O)Nc1ccc(C(=O)O)cc1)n1cc(OC)c(-c2cc(Cl)ccc2C(C)=O)cc1=O` (centres unmarked) [Example 155, 4-(2-(4-(2-acetyl-5-chlorophenyl)-5-methoxy-2-oxopyridin-1(2H)-yl)hexanamido)benzoic acid]: 81 nM; for `COc1cn(C(Cc2cccnc2)C(=O)Nc2ccc(C(=O)O)cc2)c(=O)cc1-c1cc(Cl)ccc1C(C)=O` (centres unmarked) [Example 82, 4-(2-(4-(2-acetyl-5-chlorophenyl)-5-methoxy-2-oxopyridin-1(2H)-yl)-3-(pyridin-3-yl)propanamido)benzoic acid]: 68 nM; for `COc1cn(C(Cc2ccccc2F)C(=O)Nc2ccc(C(=O)O)cc2)c(=O)cc1-c1cc(Cl)ccc1C(C)=O` (centres unmarked) [Example 68, 4-(2-(4-(2-acetyl-5-chlorophenyl)-5-methoxy-2-oxopyridin-1(2H)-yl)-3-(2-fluorophenyl)propanamido)benzoic acid]: 47 nM. Regarding `CCC(=O)c1ccc(Cl)cc1-c1cc(=O)n(C(Cc2ccccc2)C(=O)Nc2ccc3cn[nH]c3c2)cc1OC` (centres unmarked) [Example 27, 2-(4-(5-chloro-2-propionylphenyl)-5-methoxy-2-oxopyridin-1(2H)-yl)-N-(1H-indazol-6-yl)-3-phenylpropanamide], the IC50 was 66 nM.
